Reference: patent publication US12415811B2, “1,2,3',5'-tetrahydro-2'h-spiro[indole-3,1'-pyrrolo[3,4-C]pyrrole]-2,3'-dione compounds as therapeutic agents activating TP53” (ADAMED PHARMA, S.A., priority 2018, dated 2025)
Like-named read-outs stand apart in the source and are kept apart here.

Tests used:
[1] = test system: SJSA-1 osteosarcoma cell line; assay: Cell viability MTT assay; assay type: cell-based; details: Homo sapiens, 72 h incubation, average of 2-5 experiments
Description: The effect of the invented p53-Mdm2 inhibitors on cell viability has been assessed using MTT assay. It is a colorimetric assay that measures conversion of tetrazolium ring of the soluble yellow dye (MTT) into insoluble purple formazan. This process is catalyzed solely in mitochondrial dehydrogenases of living cells.
Cells were seeded on 96-well plates and then treated with successive dilutions of tested compounds. After 72 h incubation, MTT was added to the final concentration 0.5 mg/ml. The cells were further incubated for the next 4 h. Then the solution was drained and the remaining formazan crystals were dissolved in 100 μl DMSO. […] All the MTT experiments were independently repeated 2-5 times. Dose-dependent binding curves and IC50 values were calculated using GraphPad Prism 5. The presented IC50 values represent the average value from all the performed experiments (Table 3).

SJSA-1 xenograft = assay: In vivo efficacy in the SJSA-1 xenograft model in mice; details: for effect of treatment on tumors (in words): 14 doses of 12.5 mg/kg p.o., SJSA-1 xenograft; for inhibition in vivo at 12.5 mg/kg: Mus musculus, po, 12.5 mg/kg p.o., q1d, SJSA-1 xenograft in Crl:CD-1-Foxn1nu mice, mean; for regrowth of lesions during follow-up: after 14 doses of 12.5 mg/kg p.o., follow-up to day 101
Description: The experiment was conducted on female mice from the Crl:CD-1-Foxn1nu strain. Mice were inoculated subcutaneously in the right flank with cancer cell line SJSA-1 in the amount of 3×10^6 cells suspended in 100 μl HBSS: Matrigel matrix in a 3:1 ratio per mouse. On the 17th day after inoculation mice were divided into groups, so that in each group the mean tumor volume was similar and averaged around 200 mm^3. Experiment groups were selected, each consisting of 8 mice: Control NaCl 0.9% and compounds. Compounds 1-11 were dissolved in 56.60% PEG 400, 9.43% Cremophor RH40, 9.43% ETOH, 18.87% Labrafil M1944CS, 5.67% DMSO. For Compound 107 from WO2015/189799, group of 7 mice was used, and it was dissolved in 15% PEG400, 10% Cremophor EL, 75% H2O.
[…] During the course of experiment mice were weighed before each administration, —twice/thrice a week. Animal welfare was monitored daily. No significant difference in body weight or welfare was observed between experiment groups during and at the end of study.
Change in tumor volume was monitored twice/thrice a week starting from the first day of administration. Tumor volume was calculated based on its length and width measured with an electronic calipers: V[mm^3]=d^2×D/2
The tumor volume in the groups was measured up to 101 days after inoculation (72 days after last administration). Results of the experiment were expressed as mean values of tumor growth inhibition (TGI) ±SEM (Table 4). Tumor growth inhibition was calculated using the following formula TGI [%]=[100−[…]]
where C— mean tumor size in control group, T—mean tumor size in treated group. All calculations and graphs were performed using GraphPad Prism 5 software.

p53-Mdm2 interaction = p53-Mdm2 interaction (Homo sapiens (Human), UniProt Q00987); assay: Fluorescence polarization (FP) binding assay, inhibition of p53-Mdm2 interaction; details: 75 nM Mdm2 (amino acids 1-111), 10 nM FAM-labelled p53 peptide; IC50 transformed to Ki using Kenakin equation
p53-Mdm2 interaction, sequence (Q00987 1-111): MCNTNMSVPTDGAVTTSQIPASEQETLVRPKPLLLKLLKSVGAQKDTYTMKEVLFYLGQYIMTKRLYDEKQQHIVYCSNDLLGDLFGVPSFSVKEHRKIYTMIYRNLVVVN
Description: The inhibition of p53-Mdm2 interaction was measured using a fluorescence polarization (FP) binding assay. FP measures the rotational movement of molecules in a homogenous suspension. For this assay, N-terminal domain of Mdm2 protein (amino acids 1-111) is combined with a fluorescein-labeled (FAM) peptide derived from p53 trans-activation domain (Sequence: 5-FAM-TSFAEYWNLLSP). Upon excitation of the fluorescent ligand with linearly polarized light the peptide emits perpendicularly polarized light. If the peptide is bound by Mdm2, rotation will slow down and the perpendicular component will proportionally decrease. In opposition disruption of the peptide-Mdm2 complex due to binding of an inhibitor to the p53 binding site of Mdm2 results in releasing of peptide and decreasing of emitted light polarization.
Fluorescence polarization experiments were read on Biotek Cytation 5 reader with the 470 nm excitation and 520 nm emission filters for fluorescein. The fluorescence polarization was measured in black 96-well plates (Corning, CLS3991) in room temperature. Purity of Mdm2 was controlled at >95%. Reaction buffer was optimized by adding 5 mM DTT and 0.1% zwitterionic detergent CHAPS to reduce effect of nonspecific interactions.
The test was performed by combining successive dilution of compounds diluted in dimethyl sulfoxide (DMSO, 5% final concentration) with 75 nM Mdm2 in reaction buffer (PBS, 0.1% CHAPS, 5 mM DTT (dithiothreitol)). After 15 minutes of incubation in room temperature 10 nM FAM-labelled peptide was added. Final reading was performed after 90 minutes of incubation. Dose-dependent binding curves and IC50 values were calculated using GraphPad Prism5 and next transformed to Ki values using Kenakin equation (Table 2).

[2] = In vitro intrinsic clearance in murine microsomes; assay type: in vitro ADME; details: mouse, pH 7.4; murine microsomes 0.5 mg/ml, 1 μM compound, 37° C., up to 1 hour; read-out: murine MS Clint
Description: (§1) Metabolic stability of the compounds of the invention has been assessed by measurement of the in vitro intrinsic clearance in murine and human microsomes.
(§2) 10 mM stock solutions of markers and test compounds were prepared in DMSO. These were diluted 100-fold in 91:9 MeCN:DMSO to obtain a 100 μM assay stock. 10 mM NADPH was made up in 0.1M phosphate buffer (pH7.4). Microsomes were thawed in a waterbath at 37° C., and diluted to give a final assay concentration of 0.5 mg/ml.
(§3) 100 μM assay stocks were added to give a final concentration of 1 μM to incubation tubes containing buffer and NADPH (final assay concentration is 1 mM). Incubation tubes and microsomes were pre-warmed at 37° C. for 3 minutes. The microsomes were then added to the incubation tubes which were kept at 37° C. and shaken using the orbital shaker for the duration of the assay. Samples were taken at 6 pre-determined time points up to 1 hour and transferred to the prepared quench tubes containing an appropriate solvent with internal standard.
(§4) Quenched samples are mixed thoroughly and protein precipitated at −20° C. for a minimum of 12 hours. Samples were then centrifuged at 4° C. Supernatants were transferred to a fresh 96 well plate, compatible with the auto-sampler. The plate was sealed with a pre-slit silicone mat and analyzed by LC-MS/MS.

[3] = In vitro intrinsic clearance in human microsomes; assay type: in vitro ADME; details: pH 7.4; human microsomes 0.5 mg/ml, 1 μM compound, 37° C., up to 1 hour; read-out: human MS Clint
Description: as §1, §2, §3, §4

[4] = after 7 doses, read-out: TGI P.O. 12.5 mg/kg (7 doses) [%]
[5] = after 12 doses, read-out: TGI P.O. 12.5 mg/kg (12 doses) [%]

| Structure (SMILES) | IC50 [1] | effect of treatment on tumors (in words) (SJSA-1 xenograft) | inhibition in vivo at 12.5 mg/kg (SJSA-1 xenograft; [4]) | inhibition in vivo at 12.5 mg/kg (SJSA-1 xenograft; [5]) | regrowth of lesions during follow-up (SJSA-1 xenograft) | Ki (p53-Mdm2 interaction) | microsomal CLint at 1 μM [2] | microsomal CLint at 1 μM [3] |
| --- | --- | --- | --- | --- | --- | --- | --- | --- |
| CCC(C)c1c2c(cn1-c1cnc(OC)nc1OC)C(=O)N(c1cc(Cl)ccc1F)[C@]21C(=O)Nc2cc(Cl)ccc21 (some centres unmarked) [Compound 11, (3)-6′-(butan-2-yl)-6-chloro-2′-(5-chloro-2-fluorophenyl)-5′-(2,4-dimethoxypyrimidin-5-yl)-1,2,3′,5′-tetrahydro-2′H-spiro[indole-3,1′-pyrrolo[3,4-c]pyrrole]-2,3′-dione] | 0.05 µM | complete eradication of tumors | 93.7% | 99.7% | none of the lesions exhibited regrowth | 2.5 nM | – | – |
| COc1cc(N(C)C)ncc1-n1cc2c(c1C(C)C)[C@@]1(C(=O)Nc3cc(Cl)ccc31)N(c1cc(Cl)ccc1F)C2=O [Compound 6, (3S)-6-chloro-2′-(5-chloro-2-fluorophenyl)-5′-[6-(dimethylamino)-4-methoxypyridin-3-yl]-6′-(propan-2-yl)-1,2,3′,5′-tetrahydro-2′H-spiro[indole-3,1′-pyrrolo[3,4-c]pyrrole]-2,3′-dione] | 0.03 µM | – | 92% | 99.1% | – | 1.7 nM | 33.6 µL/min/mg | 19.8 µL/min/mg |
| COc1cc(OC)c(-n2cc3c(c2C(C)C)[C@@]2(C(=O)Nc4cc(Cl)ccc42)N(c2ccc(F)c(F)c2)C3=O)cn1 [Compound 8, (3S)-6-chloro-2′-(3,4-difluorophenyl)-5′-(4,6-dimethoxypyridin-3-yl)-6′-(propan-2-yl)-1,2,3′,5′-tetrahydro-2′H-spiro[indole-3,1′-pyrrolo[3,4-c]pyrrole]-2,3′-dione] | 0.15 µM | complete eradication of tumors | 96.4% | 99.7% | none of the lesions exhibited regrowth | 1.9 nM | 12.8 µL/min/mg | < 3 µL/min/mg |
| COc1cc(OC)c(-n2cc3c(c2C(C)C)[C@@]2(C(=O)Nc4cc(Cl)ccc42)N(c2cc(Cl)ccc2F)C3=O)cn1 [Compound 9, (3S)-6-chloro-2′-(5-chloro-2-fluorophenyl)-5′-(4,6-dimethoxypyridin-3-yl)-6′-(propan-2-yl)-1,2,3′,5′-tetrahydro-2′H-spiro[indole-3,1′-pyrrolo[3,4-c]pyrrole]-2,3′-dione] | 0.12 µM | – | 89.5% | 97.7% | – | 2 nM | – | – |
| COc1ncc(-n2cc3c(c2C(C)C)[C@@]2(C(=O)Nc4cc(Cl)ccc42)N(c2ccc(F)c(F)c2)C3=O)c(OC)n1 [Compound 7, (3S)-6-chloro-2′-(3,4-difluorophenyl)-5′-(2,4-dimethoxypyrimidin-5-yl)-6′-(propan-2-yl)-1,2,3′,5′-tetrahydro-2′H-spiro[indole-3,1′-pyrrolo[3,4-c]pyrrole]-2,3′-dione] | 0.22 µM | complete eradication of tumors | 95% | 100% | none of the lesions exhibited regrowth | 1.9 nM | 6.6 µL/min/mg | < 3 µL/min/mg |
| COc1nc(OC)c(-n2cc3c(c2C(C)C)[C@@]2(C(=O)Nc4cc(Cl)ccc42)N(c2cc(Cl)ccc2F)C3=O)c(OC)n1 [Compound 5, (3S)-6-chloro-2′-(5-chloro-2-fluorophenyl)-6′-(propan-2-yl)-5′-(trimethoxypyrimidin-5-yl)-1,2,3′,5′-tetrahydro-2′H-spiro[indole-3,1′-pyrrolo[3,4-c]pyrrole]-2,3′-dione] | 0.18 µM | – | 85.8% | 96% | – | 2.2 nM | < 3 µL/min/mg | < 3 µL/min/mg |
| COc1ncc(-n2cc3c(c2C(C)C)[C@@]2(C(=O)Nc4cc(Cl)ccc42)N(c2cc(Cl)ccc2F)C3=O)c(OC)n1 [Compound 2, (3S)-6-chloro-2′-(5-chloro-2-fluorophenyl)-5′-(2,4-dimethoxypyrimidin-5-yl)-6′-(propan-2-yl)-1,2,3′,5′-tetrahydro-2′H-spiro[indole-3,1′-pyrrolo[3,4-c]pyrrole]-2,3′-dione] | 0.16 µM | – | 94.4% | 98.9% | – | 1.7 nM | < 4 µL/min/mg | < 3 µL/min/mg |
| COc1ncc(-n2cc3c(c2C(C)C)[C@@]2(C(=O)Nc4cc(Cl)ccc42)N(c2ccc(F)c(Cl)c2)C3=O)c(OC)n1 [Compound 4, (3S)-6-chloro-2′-(3-chloro-4-fluorophenyl)-5′-(2,4-dimethoxypyrimidin-5-yl)-6′-(propan-2-yl)-1,2,3′,5′-tetrahydro-2′H-spiro[indole-3,1′-pyrrolo[3,4-c]pyrrole]-2,3′-dione] | 0.32 µM | – | 94.9% | 99.5% | – | 1.7 nM | < 3 µL/min/mg | < 3 µL/min/mg |
| COc1ncc(-n2cc3c(c2C(C)C)[C@@]2(C(=O)Nc4cc(Cl)ccc42)N(c2cc(Cl)c(F)cc2F)C3=O)c(OC)n1 [Compound 10, (3S)-6-chloro-2′-(5-chloro-2,4-difluorophenyl)-5′-(2,4-dimethoxypyrimidin-5-yl)-6′-(propan-2-yl)-1,2,3′,5′-tetrahydro-2′H-spiro[indole-3,1′-pyrrolo[3,4-c]pyrrole]-2,3′-dione] | 0.4 µM | – | 93.5% | 98.8% | – | 2 nM | < 3 µL/min/mg | < 3.2 µL/min/mg |
